# ChEMBL document CHEMBL1201861, “Genomics of Drug Sensitity in Cancer screening data, Wellcome Trust Sanger Institute”
# Key:
# Assay in all cases: cells
# Details in all cases: Homo sapiens
# COR-L23 = format: functional, cell-based;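 note: cell viability assay measuring how strongly compounds suppress growth of COR-L23 cells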
# Description: SANGER: Inhibition of human COR-L23 cell growth in a cell viability assay.
# ChaGo-K-1 = format: functional, cell-based;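 note: growth inhibition of ChaGo-K-1 cells, read out with a cell viability assay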
# Description: SANGER: Inhibition of human ChaGo-K-1 cell growth in a cell viability assay.
# DU-145 = format: functional, cell-based
# Description: SANGER: Inhibition of human DU-145 cell growth in a cell viability assay.
# EFM-19 = format: functional, cell-based;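 note: growth inhibition of human EFM-19 cells, measured in a cell viability assay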
# Description: SANGER: Inhibition of human EFM-19 cell growth in a cell viability assay.
# EFO-27 = format: functional, cell-based;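 note: growth inhibition of EFO-27 cells, read out with a cell viability assay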
# Description: SANGER: Inhibition of human EFO-27 cell growth in a cell viability assay.
# G-401 = format: functional, cell-based
# Description: SANGER: Inhibition of human G-401 cell growth in a cell viability assay.
# GCT = format: functional, cell-based;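 note: GCT cell line proliferation inhibition, read out with a cell viability assay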
# Description: SANGER: Inhibition of human GCT cell growth in a cell viability assay.
# GMS-10 = format: functional, cell-based;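 note: growth inhibition of GMS-10 cells, read out as cell viability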
# Description: SANGER: Inhibition of human GMS-10 cell growth in a cell viability assay.
# H4 = format: functional, cell-based
# Description: SANGER: Inhibition of human H4 cell growth in a cell viability assay.
# HCC1419 = format: functional, cell-based;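 note: growth inhibition of human HCC1419 cells, read out as cell viability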
# Description: SANGER: Inhibition of human HCC1419 cell growth in a cell viability assay.
# HCT-116 = format: functional, cell-based
# Description: SANGER: Inhibition of human HCT-116 cell growth in a cell viability assay.
# HCT-15 = format: functional, cell-based;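 note: cell viability readout, IC50 reflecting suppression of HCT-15 cell growth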
# Description: SANGER: Inhibition of human HCT-15 cell growth in a cell viability assay.
# HOP-92 = format: functional, cell-based;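 note: cell viability readout, with IC50 reflecting inhibition of HOP-92 cell growth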
# Description: SANGER: Inhibition of human HOP-92 cell growth in a cell viability assay.
# HT-3 = format: functional, cell-based;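 note: growth inhibition measured with a cell viability readout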
# Description: SANGER: Inhibition of human HT-3 cell growth in a cell viability assay.
# HuO-3N1 = format: functional, cell-based;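 note: cell viability readout used to measure how strongly compounds suppress proliferation of human HuO-3N1 cells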
# Description: SANGER: Inhibition of human HuO-3N1 cell growth in a cell viability assay.
# KYSE-410 = format: functional, cell-based;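 note: growth inhibition of KYSE-410 cells, measured through a cell viability readout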
# Description: SANGER: Inhibition of human KYSE-410 cell growth in a cell viability assay.
# MDA-MB-361 = format: functional, cell-based
# ME-180 = format: functional, cell-based;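 note: cell viability assay measuring growth inhibition of ME-180 cells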
# Description: SANGER: Inhibition of human ME-180 cell growth in a cell viability assay.
# MEL-HO = format: functional, cell-based
# Description: SANGER: Inhibition of human MEL-HO cell growth in a cell viability assay.
# MKN-1 = format: functional, cell-based;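 note: growth inhibition of human MKN1 cells, read out by a cell viability measurement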
# Description: SANGER: Inhibition of human MKN1 cell growth in a cell viability assay.
# NCI-H2052 = format: functional, cell-based;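 note: growth inhibition of NCI-H2052 cells, read out with a cell viability assay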
# Description: SANGER: Inhibition of human NCI-H2052 cell growth in a cell viability assay.
# NCI-H2342 = format: functional, cell-based;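 note: growth inhibition of the cancer cell line, determined with a cell viability assay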
# Description: SANGER: Inhibition of human NCI-H2342 cell growth in a cell viability assay.
# NCI-H28 = format: functional, cell-based;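 note: growth inhibition of human NCI-H28 cells, read out as cell viability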
# Description: SANGER: Inhibition of human NCI-H28 cell growth in a cell viability assay.
# NCI-H292 = format: functional, cell-based;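 note: growth inhibition of NCI-H292 cells, read out with a cell viability assay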
# Description: SANGER: Inhibition of human NCI-H292 cell growth in a cell viability assay.
# NCI-H810 = format: functional, cell-based;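 note: IC50 reflects inhibition of cancer cell line growth, read out with a cell viability assay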
# Description: SANGER: Inhibition of human NCI-H810 cell growth in a cell viability assay.
# PANC-08-13 = format: functional, cell-based;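 note: cell growth inhibition, measured with a cell viability assay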
# Description: SANGER: Inhibition of human PANC-08-13 cell growth in a cell viability assay.
# RO82-W-1 = format: functional, cell-based;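 note: growth inhibition of human RO82-W-1 cells, measured with a cell viability assay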
# Description: SANGER: Inhibition of human RO82-W-1 cell growth in a cell viability assay.
# RT-112 = format: functional, cell-based
# Description: SANGER: Inhibition of human RT-112 cell growth in a cell viability assay.
# SCC-9 = format: functional, cell-based;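 note: Read-out is a cell viability assay, with values giving inhibition of cell growth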
# Description: SANGER: Inhibition of human SCC-9 cell growth in a cell viability assay.
# SF-295 = format: functional, cell-based;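 note: growth inhibition of SF-295 cells, read out with a cell viability assay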
# Description: SANGER: Inhibition of human SF295 cell growth in a cell viability assay.
# SK-MEL-28 = format: functional, cell-based;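 note: growth inhibition of human SK-MEL-28 cells, read out with a cell viability assay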
# Description: SANGER: Inhibition of human SK-MEL-28 cell growth in a cell viability assay.
# SK-MEL3 = format: functional, cell-based, SK-MEL-3;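 note: growth inhibition of human SK-MEL-3 cells, read out with a cell viability assay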
# Description: SANGER: Inhibition of human SK-MEL-3 cell growth in a cell viability assay.
# SW1088 = format: functional, cell-based;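 note: growth inhibition of human SW1088 cells, read out by a cell viability assay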
# Description: SANGER: Inhibition of human SW1088 cell growth in a cell viability assay.
# SW48 = format: functional, cell-based;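 note: growth inhibition of SW48 cells, read out with a cell viability assay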
# Description: SANGER: Inhibition of human SW48 cell growth in a cell viability assay.
# SW626 = format: functional, cell-based;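 note: growth inhibition of SW626 cells, measured with a cell viability assay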
# Description: SANGER: Inhibition of human SW626 cell growth in a cell viability assay.
# SW756 = format: functional, cell-based;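 note: growth inhibition of human SW756 cells, read out with a cell viability assay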
# Description: SANGER: Inhibition of human SW756 cell growth in a cell viability assay.
# SW780 = format: functional, cell-based;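 note: growth inhibition of the cells, read out with a cell viability assay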
# Description: SANGER: Inhibition of human SW780 cell growth in a cell viability assay.
# SW837 = format: functional, cell-based;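 note: growth inhibition of SW837 cells, determined with a cell viability assay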
# Description: SANGER: Inhibition of human SW837 cell growth in a cell viability assay.
# 8505C = format: functional, cell-based
# Description: SANGER: Inhibition of human 8505C cell growth in a cell viability assay.
# A253 cell line = format: functional, cell-based;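 note: growth inhibition of A253 cells, read out with a cell viability assay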
# Description: SANGER: Inhibition of human A253 cell growth in a cell viability assay.
# BPH-1 = format: functional, cell-based;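 note: cell viability assay measuring growth inhibition of human BPH-1 cells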
# Description: SANGER: Inhibition of human BPH-1 cell growth in a cell viability assay.
# CAL-27 = format: functional, cell-based;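 note: Viability-based readout, IC50 reflecting inhibition of CAL-27 cell growth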
# Description: SANGER: Inhibition of human CAL-27 cell growth in a cell viability assay.
# U2OS = format: functional, cell-based, U-2-OS;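 note: growth inhibition of human U-2-OS cells, determined with a cell viability assay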
# Description: SANGER: Inhibition of human U-2-OS cell growth in a cell viability assay.
# UACC-62 = format: functional, cell-based;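 note: growth inhibition of human UACC-62 cells, read out by a cell viability assay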
# Description: SANGER: Inhibition of human UACC-62 cell growth in a cell viability assay.
# UMUC3 = format: functional, cell-based;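 note: growth inhibition of human UM-UC-3 cells, read out with a cell viability assay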
# Description: SANGER: Inhibition of human UM-UC-3 cell growth in a cell viability assay.
# YKG-1 = format: functional, cell-based;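 note: cell growth inhibition, read out with a viability assay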
# Description: SANGER: Inhibition of human YKG-1 cell growth in a cell viability assay.
smiles,measurement,setting,value
O=c1cc(N2CCOCC2)oc2c(-c3cccc4c3sc3ccccc34)cccc12,IC50,COR-L23,> 2 µM
same,IC50,ChaGo-K-1,> 2 µM
same,IC50,DU-145,> 2 µM
same,IC50,EFM-19,> 2 µM
same,IC50,EFO-27,> 2 µM
same,IC50,G-401,> 2 µM
same,IC50,GCT,> 2 µM
same,IC50,GMS-10,> 2 µM
same,IC50,H4,> 2 µM
same,IC50,HCC1419,> 2 µM
same,IC50,HCT-116,> 2 µM
same,IC50,HCT-15,> 2 µM
same,IC50,HOP-92,> 2 µM
same,IC50,HT-3,> 2 µM
same,IC50,HuO-3N1,0.466 µM
same,IC50,KYSE-410,> 2 µM
same,IC50,MDA-MB-361,> 2 µM
same,IC50,ME-180,> 2 µM
same,IC50,MEL-HO,> 2 µM
same,IC50,MKN-1,> 2 µM
same,IC50,NCI-H2052,> 2 µM
same,IC50,NCI-H2342,> 2 µM
same,IC50,NCI-H28,> 2 µM
same,IC50,NCI-H292,1.74 µM
same,IC50,NCI-H810,> 2 µM
same,IC50,PANC-08-13,> 2 µM
same,IC50,RO82-W-1,> 2 µM
same,IC50,RT-112,> 2 µM
same,IC50,SCC-9,> 2 µM
same,IC50,SF-295,> 2 µM
same,IC50,SK-MEL-28,> 2 µM
same,IC50,SK-MEL3,> 2 µM
same,IC50,SW1088,> 2 µM
same,IC50,SW48,> 2 µM
same,IC50,SW626,> 2 µM
same,IC50,SW756,> 2 µM
same,IC50,SW780,> 2 µM
same,IC50,SW837,> 2 µM
same,IC50,8505C,> 2 µM
same,IC50,A253 cell line,> 2 µM
same,IC50,BPH-1,> 2 µM
same,IC50,CAL-27,> 2 µM
same,IC50,U2OS,> 2 µM
same,IC50,UACC-62,> 2 µM
same,IC50,UMUC3,> 2 µM
same,IC50,YKG-1,> 2 µM
C[C@]12O[C@H](C[C@]1(O)CO)n1c3ccccc3c3c4c(c5c6ccccc6n2c5c31)CNC4=O [LESTAURTINIB],IC50,COR-L23,0.665 µM
same,IC50,ChaGo-K-1,1.96 µM
same,IC50,DU-145,> 2 µM
same,IC50,EFM-19,0.151 µM
same,IC50,EFO-27,1.03 µM
same,IC50,G-401,0.439 µM
same,IC50,GCT,0.327 µM
same,IC50,GMS-10,0.463 µM
same,IC50,H4,0.0135 µM
same,IC50,HCC1419,> 2 µM
same,IC50,HCT-116,0.137 µM
same,IC50,HCT-15,0.566 µM
same,IC50,HOP-92,0.909 µM
same,IC50,HT-3,0.449 µM
same,IC50,HuO-3N1,0.605 µM
same,IC50,KYSE-410,1.41 µM
same,IC50,MDA-MB-361,1.25 µM
same,IC50,ME-180,0.737 µM
same,IC50,MEL-HO,0.12 µM
same,IC50,MKN-1,> 2 µM
same,IC50,NCI-H2052,0.488 µM
same,IC50,NCI-H2342,> 2 µM
same,IC50,NCI-H28,0.833 µM
same,IC50,NCI-H292,0.0914 µM
same,IC50,NCI-H810,0.995 µM
same,IC50,PANC-08-13,> 2 µM
same,IC50,RO82-W-1,> 2 µM
same,IC50,RT-112,0.464 µM
same,IC50,SCC-9,1.21 µM
same,IC50,SF-295,0.428 µM
same,IC50,SK-MEL-28,0.327 µM
same,IC50,SK-MEL3,0.16 µM
same,IC50,SW1088,0.874 µM
same,IC50,SW48,0.0716 µM
same,IC50,SW626,1.13 µM
same,IC50,SW756,0.63 µM
same,IC50,SW780,0.327 µM
same,IC50,SW837,> 2 µM
same,IC50,8505C,0.302 µM
same,IC50,BPH-1,1.3 µM
same,IC50,CAL-27,0.437 µM
same,IC50,U2OS,0.0829 µM
same,IC50,UACC-62,1.12 µM
same,IC50,UMUC3,1.15 µM
same,IC50,YKG-1,0.325 µM
